Results: ChEMBL document CHEMBL1201862, “PubChem BioAssay data set” (2004)
The source made the active and inactive calls.

Legend:
[1] = HEK-293T viability loss after treatment – luminescence, T-cell screen hits, cytotoxicity control for TCR NF-kB inhibitor project, dose response (AID 489026); assay type: functional, cell-based;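 also: cells exposed to compound about 14 hours before the viability readout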
cells = assay type: functional, cell-based
[2] = alpha-synuclein stem-loop translation blockers – luminescence, H4 neuroglioblastoma cells, dose confirmation, confirmation (AID 2454); assay type: functional, cell-based;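 also: H4 neuroglioblastoma cells carrying an alpha-synuclein 5'UTR luciferase reporter; potency for inhibition of the luciferase signal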
[3] = alpha-synuclein stem-loop luciferase translation blockers – H4 neuroglioma cells, luminescence, confirmation (AID 1988); assay type: functional, cell-based
[4] = IC50 of Artemis nuclease activity blockers – biochemical, fluorescence intensity, dose response (AID 720701); assay type: functional;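 also: Artemis endonuclease enzyme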
[5] = viability loss of HPDE-C7K cells – cell-based, fluorescence, HTS, primary screen (AID 431); assay type: functional; conditions: Homo sapiens
[6] = luciferase reporter signal reduction – luminescence, H4-C neuroglioblastoma cells, dose response (AID 2458); assay type: functional, cell-based;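 also: H4 neuroglioblastoma cells stably carrying a luciferase reporter gene fusion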
[7] = HPDE-C7 pancreatic duct cell viability loss – fluorescence, HTS (AID 430); assay type: functional, cell-based; conditions: Homo sapiens
[8] = luciferase reporter signal suppression in cells – H4 neuroglioma cells, luminescence, dose response (AID 1990); assay type: functional, cell-based
J774.A1 = assay: Confirmation of image-based Screening Assay for Inhibitors of Phagocytosis. [Related pubchem assays (depositor defined):AID1029, AID1643]; assay type: functional, cell-based; conditions: Mus musculus
[9] = Luminescence Cell-Based Dose Response HTS to Identify Inhibitors of 5'UTR Stem-Loop Driven Prion Protein mRNA Translation in H4 Neuroglioblastoma Cells. [Related pubchem assays: 1827 (Project Summary), 1813 (Primary HTS)]; assay type: functional
[10] = target: Nucleotide-binding oligomerization domain-containing protein 2 (Homo sapiens, UniProt Q9HC29); assay: PubChem AID 2334; assay type: functional
[11] = target: T1, Nucleotide-binding oligomerization domain-containing protein 1 (Homo sapiens, UniProt Q9Y239); assay: blockers of NOD1 pathway activity – revised, SAR follow-up (AID 2333); assay type: functional
T1 sequence (Q9Y239 whole entry): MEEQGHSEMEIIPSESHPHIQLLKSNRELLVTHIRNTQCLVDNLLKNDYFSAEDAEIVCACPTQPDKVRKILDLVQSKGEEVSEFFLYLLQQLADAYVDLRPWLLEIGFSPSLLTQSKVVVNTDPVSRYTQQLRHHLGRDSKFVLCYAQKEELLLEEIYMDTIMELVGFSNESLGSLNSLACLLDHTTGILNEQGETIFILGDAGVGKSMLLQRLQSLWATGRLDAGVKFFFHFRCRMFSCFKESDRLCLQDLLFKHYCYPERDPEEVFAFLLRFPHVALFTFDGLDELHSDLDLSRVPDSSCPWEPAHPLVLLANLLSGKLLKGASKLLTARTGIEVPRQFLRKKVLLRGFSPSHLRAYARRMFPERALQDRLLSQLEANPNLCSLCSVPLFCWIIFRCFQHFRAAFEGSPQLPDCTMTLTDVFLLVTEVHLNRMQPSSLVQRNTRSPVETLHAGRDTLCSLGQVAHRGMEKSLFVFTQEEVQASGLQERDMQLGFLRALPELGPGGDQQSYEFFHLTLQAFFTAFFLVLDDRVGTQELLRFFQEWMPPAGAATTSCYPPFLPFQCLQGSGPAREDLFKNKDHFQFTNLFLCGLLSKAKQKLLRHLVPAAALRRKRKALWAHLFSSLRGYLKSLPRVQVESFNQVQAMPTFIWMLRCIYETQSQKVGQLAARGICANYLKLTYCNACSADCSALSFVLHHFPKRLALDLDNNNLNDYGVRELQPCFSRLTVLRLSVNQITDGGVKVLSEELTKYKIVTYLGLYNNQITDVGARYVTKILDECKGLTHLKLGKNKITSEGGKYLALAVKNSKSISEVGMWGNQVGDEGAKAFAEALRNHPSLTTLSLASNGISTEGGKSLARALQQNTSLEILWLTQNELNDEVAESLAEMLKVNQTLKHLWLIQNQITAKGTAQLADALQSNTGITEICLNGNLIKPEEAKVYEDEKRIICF

HEK293 [12] = assay: cells; conditions: Homo sapiens
HEK293 [13] = assay: cells; assay type: functional, cell-based; conditions: Homo sapiens
HEK293 [14] = assay: inhibition of NOD1-driven NF-kB reporter – cell-based, luminescence, uHTS, primary screen (AID 1578); assay type: functional; conditions: Homo sapiens
Tumor necrosis factor = Tumor necrosis factor (Homo sapiens, UniProt P01375); assay: analog potency on TNFa NF-kB signaling – cell-based, revised, SAR follow-up (AID 2337); assay type: functional
HEK293 [15] = assay: NOD2 signaling inhibitors in MDP-stimulated cells, cell-based, uHTS, luminescence (AID 2001); assay type: functional; conditions: Homo sapiens
HEK293 [16] = assay: cells; assay type: functional, cell-based; conditions: Homo sapiens; remark: listed apart in the source
[17] = target: T2, Dual specificity protein phosphatase 6 (Rattus norvegicus, UniProt Q64346); assay type: functional
T2 sequence (Q64346 whole entry): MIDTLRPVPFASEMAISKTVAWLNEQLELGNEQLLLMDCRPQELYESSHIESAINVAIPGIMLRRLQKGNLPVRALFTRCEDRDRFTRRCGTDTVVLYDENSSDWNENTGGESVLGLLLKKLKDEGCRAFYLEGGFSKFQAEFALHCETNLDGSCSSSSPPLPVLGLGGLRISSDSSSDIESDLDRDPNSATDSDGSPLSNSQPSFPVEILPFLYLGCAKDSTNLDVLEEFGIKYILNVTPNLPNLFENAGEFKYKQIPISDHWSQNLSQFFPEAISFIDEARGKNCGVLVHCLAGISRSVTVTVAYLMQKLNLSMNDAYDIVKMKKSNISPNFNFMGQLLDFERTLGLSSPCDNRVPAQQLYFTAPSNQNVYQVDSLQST

Estrogen receptor = target: T3, Estrogen receptor (Homo sapiens, UniProt P03372);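 also: potency for inhibiting coactivator peptide recruitment to the receptor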
T3 sequence (P03372 whole entry): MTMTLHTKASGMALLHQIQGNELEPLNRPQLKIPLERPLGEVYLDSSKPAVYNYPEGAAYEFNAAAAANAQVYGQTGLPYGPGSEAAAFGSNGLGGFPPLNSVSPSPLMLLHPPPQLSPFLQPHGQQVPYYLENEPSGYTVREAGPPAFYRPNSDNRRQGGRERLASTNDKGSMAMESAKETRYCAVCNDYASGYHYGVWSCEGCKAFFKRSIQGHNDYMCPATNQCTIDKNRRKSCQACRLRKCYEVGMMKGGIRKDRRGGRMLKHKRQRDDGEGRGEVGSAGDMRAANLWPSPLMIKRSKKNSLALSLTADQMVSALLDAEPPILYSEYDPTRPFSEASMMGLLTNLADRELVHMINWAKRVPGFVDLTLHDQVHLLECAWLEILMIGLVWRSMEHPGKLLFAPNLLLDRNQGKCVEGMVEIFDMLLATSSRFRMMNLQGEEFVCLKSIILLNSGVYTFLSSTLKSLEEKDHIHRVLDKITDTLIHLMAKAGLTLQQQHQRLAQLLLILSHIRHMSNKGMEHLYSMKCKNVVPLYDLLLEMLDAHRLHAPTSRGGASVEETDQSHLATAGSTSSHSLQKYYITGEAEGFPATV

Bcl-2-like protein 10 = Bcl-2-like protein 10 (Homo sapiens, UniProt Q9HD36); assay: Bcl-B/TR3 peptide binding disruption – biochemical, fluorescence polarization, FITC-TR3 peptide, selectivity assay for Bfl-1 inhibitor project, primary screen (AID 748);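 also: fluorescence polarization from a fluorescein-labelled TR3 peptide binding purified Bcl-B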
[18] = target: T2, Dual specificity protein phosphatase 6
[19] = target: T2, Dual specificity protein phosphatase 6; assay: inhibition of rat DUSP6 enzyme activity – biochemical, in vitro, primary screen (AID 425)
Estrogen receptor beta [20] = target: T4, Estrogen receptor beta (Homo sapiens, UniProt Q92731);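 also: recombinant ER-beta bound to coactivator SRC1 peptide in presence of estradiol agonist; inhibitors block coactivator peptide binding and lower the FRET signal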
T4 sequence (Q92731 whole entry): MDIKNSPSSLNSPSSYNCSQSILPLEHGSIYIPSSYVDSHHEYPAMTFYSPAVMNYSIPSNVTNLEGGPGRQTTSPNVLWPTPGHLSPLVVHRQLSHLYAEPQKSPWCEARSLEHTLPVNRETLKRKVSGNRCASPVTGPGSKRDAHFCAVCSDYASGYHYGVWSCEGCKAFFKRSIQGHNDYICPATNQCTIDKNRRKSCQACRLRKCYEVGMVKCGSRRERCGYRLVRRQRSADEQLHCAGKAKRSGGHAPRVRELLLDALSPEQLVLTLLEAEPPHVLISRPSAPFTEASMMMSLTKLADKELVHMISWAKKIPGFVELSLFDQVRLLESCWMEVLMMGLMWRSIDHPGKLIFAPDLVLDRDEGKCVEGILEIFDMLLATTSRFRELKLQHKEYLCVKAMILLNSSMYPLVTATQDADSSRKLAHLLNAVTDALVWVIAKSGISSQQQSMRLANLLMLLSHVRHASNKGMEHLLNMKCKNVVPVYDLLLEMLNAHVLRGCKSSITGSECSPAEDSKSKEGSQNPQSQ

Estrogen receptor beta [21] = target: T4, Estrogen receptor beta; assay: blockers of SRC-3 recruitment to ERβ – biochemical, ELISA, streptavidin-HRP readout, orthogonal assay, confirmation (AID 1060)
Ephrin type-A receptor 4 = Ephrin type-A receptor 4 (Mus musculus, UniProt Q03137); assay: EphA4 ligand-binding antagonists – biochemical, colorimetric, mouse EphA4, primary screen (AID 689); assay type: functional
Ephrin type-A receptor 4, sequence (Q03137 whole entry): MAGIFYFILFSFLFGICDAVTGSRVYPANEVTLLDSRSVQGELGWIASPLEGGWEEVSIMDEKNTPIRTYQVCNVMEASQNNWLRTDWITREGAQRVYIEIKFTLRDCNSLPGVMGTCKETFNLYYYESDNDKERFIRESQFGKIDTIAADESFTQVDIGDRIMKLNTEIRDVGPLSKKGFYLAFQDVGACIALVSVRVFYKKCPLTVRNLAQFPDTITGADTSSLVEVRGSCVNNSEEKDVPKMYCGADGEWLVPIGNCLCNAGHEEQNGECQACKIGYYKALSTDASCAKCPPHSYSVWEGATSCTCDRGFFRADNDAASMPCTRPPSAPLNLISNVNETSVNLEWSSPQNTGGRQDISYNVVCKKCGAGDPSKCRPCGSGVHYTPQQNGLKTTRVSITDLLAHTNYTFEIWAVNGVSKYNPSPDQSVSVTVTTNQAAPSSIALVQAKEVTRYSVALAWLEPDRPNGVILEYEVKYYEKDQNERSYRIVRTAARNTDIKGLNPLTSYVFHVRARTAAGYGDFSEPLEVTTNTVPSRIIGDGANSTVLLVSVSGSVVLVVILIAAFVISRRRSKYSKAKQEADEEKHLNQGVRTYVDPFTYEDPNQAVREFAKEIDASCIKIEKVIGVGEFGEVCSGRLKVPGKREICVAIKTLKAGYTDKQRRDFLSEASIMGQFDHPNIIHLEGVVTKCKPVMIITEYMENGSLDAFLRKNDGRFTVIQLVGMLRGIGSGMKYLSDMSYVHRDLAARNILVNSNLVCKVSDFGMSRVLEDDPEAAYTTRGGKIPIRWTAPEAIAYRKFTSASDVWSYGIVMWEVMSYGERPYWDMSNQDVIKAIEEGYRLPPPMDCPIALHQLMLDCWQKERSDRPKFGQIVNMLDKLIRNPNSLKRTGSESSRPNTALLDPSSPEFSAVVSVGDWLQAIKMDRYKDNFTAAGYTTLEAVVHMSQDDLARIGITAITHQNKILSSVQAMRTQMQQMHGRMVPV

[22] = target: T5, Tyrosine-protein phosphatase non-receptor type 7 (Homo sapiens, UniProt P35236); assay type: functional
T5 sequence (P35236 whole entry): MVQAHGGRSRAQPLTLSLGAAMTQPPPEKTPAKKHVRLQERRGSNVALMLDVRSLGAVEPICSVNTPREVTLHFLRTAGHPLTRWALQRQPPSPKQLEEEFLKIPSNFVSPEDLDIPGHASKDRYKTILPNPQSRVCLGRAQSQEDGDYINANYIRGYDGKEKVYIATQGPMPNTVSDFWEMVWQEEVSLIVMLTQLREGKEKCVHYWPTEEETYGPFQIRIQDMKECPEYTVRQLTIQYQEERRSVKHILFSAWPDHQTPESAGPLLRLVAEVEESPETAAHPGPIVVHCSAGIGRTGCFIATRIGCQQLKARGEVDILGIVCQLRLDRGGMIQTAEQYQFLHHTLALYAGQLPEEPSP

[23] = target: Induced myeloid leukemia cell differentiation protein Mcl-1 (Homo sapiens, UniProt Q07820); assay type: functional
[24] = target: Glyceraldehyde-3-phosphate dehydrogenase (Homo sapiens, UniProt P04406)
Glyceraldehyde-3-phosphate dehydrogenase, sequence (P04406 whole entry): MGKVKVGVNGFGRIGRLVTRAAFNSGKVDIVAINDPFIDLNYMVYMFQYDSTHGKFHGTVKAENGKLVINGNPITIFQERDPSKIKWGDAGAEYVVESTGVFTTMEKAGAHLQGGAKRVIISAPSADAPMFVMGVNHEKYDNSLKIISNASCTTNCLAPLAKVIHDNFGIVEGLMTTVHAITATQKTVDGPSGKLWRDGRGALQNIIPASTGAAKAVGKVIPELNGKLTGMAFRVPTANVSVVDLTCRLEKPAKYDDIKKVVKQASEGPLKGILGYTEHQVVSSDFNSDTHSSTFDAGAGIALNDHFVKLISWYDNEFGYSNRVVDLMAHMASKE

Large T antigen = Large T antigen (Simian virus 40, UniProt P03070); assay type: functional, Betapolyomavirus macacae;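 also: Confirmatory-stage PubChem screen for compounds that inhibit SV40 T antigen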
Large T antigen, sequence (P03070 whole entry): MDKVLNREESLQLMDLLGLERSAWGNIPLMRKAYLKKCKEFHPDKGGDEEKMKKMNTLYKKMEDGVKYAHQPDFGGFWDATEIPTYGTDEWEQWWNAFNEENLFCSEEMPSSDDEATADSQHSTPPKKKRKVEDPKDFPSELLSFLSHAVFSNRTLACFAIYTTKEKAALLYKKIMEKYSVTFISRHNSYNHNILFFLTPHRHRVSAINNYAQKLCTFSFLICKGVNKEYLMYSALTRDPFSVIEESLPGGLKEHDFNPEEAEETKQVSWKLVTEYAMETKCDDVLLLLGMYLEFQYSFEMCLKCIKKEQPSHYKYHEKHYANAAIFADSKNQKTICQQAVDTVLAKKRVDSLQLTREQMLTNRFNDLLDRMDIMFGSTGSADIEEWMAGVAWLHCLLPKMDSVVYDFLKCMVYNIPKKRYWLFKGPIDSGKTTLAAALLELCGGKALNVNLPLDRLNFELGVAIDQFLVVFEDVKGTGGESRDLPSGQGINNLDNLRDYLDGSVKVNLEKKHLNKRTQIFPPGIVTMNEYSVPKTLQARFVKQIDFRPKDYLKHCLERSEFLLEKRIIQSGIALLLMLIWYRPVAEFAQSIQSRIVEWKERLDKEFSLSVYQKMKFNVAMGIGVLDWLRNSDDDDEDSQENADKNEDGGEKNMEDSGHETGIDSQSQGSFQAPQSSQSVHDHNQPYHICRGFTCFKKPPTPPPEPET

[25] = protection from phage-mediated lysis, alamar blue read-out – E. coli UTI89, K1F phage, bacterial capsule biogenesis inhibitors (AID 488966); assay type: functional
[26] = target: T6, Voltage-dependent T-type calcium channel subunit alpha-1H (Homo sapiens, UniProt O95180); assay: Inhibitors of T-Type Calcium Channels. [Related pubchem assays (depositor defined):AID449739, AID463087, AID489005, AID493041, AID504579, AID504584, AID504619, AID504628]; assay type: functional
T6 sequence (O95180 whole entry): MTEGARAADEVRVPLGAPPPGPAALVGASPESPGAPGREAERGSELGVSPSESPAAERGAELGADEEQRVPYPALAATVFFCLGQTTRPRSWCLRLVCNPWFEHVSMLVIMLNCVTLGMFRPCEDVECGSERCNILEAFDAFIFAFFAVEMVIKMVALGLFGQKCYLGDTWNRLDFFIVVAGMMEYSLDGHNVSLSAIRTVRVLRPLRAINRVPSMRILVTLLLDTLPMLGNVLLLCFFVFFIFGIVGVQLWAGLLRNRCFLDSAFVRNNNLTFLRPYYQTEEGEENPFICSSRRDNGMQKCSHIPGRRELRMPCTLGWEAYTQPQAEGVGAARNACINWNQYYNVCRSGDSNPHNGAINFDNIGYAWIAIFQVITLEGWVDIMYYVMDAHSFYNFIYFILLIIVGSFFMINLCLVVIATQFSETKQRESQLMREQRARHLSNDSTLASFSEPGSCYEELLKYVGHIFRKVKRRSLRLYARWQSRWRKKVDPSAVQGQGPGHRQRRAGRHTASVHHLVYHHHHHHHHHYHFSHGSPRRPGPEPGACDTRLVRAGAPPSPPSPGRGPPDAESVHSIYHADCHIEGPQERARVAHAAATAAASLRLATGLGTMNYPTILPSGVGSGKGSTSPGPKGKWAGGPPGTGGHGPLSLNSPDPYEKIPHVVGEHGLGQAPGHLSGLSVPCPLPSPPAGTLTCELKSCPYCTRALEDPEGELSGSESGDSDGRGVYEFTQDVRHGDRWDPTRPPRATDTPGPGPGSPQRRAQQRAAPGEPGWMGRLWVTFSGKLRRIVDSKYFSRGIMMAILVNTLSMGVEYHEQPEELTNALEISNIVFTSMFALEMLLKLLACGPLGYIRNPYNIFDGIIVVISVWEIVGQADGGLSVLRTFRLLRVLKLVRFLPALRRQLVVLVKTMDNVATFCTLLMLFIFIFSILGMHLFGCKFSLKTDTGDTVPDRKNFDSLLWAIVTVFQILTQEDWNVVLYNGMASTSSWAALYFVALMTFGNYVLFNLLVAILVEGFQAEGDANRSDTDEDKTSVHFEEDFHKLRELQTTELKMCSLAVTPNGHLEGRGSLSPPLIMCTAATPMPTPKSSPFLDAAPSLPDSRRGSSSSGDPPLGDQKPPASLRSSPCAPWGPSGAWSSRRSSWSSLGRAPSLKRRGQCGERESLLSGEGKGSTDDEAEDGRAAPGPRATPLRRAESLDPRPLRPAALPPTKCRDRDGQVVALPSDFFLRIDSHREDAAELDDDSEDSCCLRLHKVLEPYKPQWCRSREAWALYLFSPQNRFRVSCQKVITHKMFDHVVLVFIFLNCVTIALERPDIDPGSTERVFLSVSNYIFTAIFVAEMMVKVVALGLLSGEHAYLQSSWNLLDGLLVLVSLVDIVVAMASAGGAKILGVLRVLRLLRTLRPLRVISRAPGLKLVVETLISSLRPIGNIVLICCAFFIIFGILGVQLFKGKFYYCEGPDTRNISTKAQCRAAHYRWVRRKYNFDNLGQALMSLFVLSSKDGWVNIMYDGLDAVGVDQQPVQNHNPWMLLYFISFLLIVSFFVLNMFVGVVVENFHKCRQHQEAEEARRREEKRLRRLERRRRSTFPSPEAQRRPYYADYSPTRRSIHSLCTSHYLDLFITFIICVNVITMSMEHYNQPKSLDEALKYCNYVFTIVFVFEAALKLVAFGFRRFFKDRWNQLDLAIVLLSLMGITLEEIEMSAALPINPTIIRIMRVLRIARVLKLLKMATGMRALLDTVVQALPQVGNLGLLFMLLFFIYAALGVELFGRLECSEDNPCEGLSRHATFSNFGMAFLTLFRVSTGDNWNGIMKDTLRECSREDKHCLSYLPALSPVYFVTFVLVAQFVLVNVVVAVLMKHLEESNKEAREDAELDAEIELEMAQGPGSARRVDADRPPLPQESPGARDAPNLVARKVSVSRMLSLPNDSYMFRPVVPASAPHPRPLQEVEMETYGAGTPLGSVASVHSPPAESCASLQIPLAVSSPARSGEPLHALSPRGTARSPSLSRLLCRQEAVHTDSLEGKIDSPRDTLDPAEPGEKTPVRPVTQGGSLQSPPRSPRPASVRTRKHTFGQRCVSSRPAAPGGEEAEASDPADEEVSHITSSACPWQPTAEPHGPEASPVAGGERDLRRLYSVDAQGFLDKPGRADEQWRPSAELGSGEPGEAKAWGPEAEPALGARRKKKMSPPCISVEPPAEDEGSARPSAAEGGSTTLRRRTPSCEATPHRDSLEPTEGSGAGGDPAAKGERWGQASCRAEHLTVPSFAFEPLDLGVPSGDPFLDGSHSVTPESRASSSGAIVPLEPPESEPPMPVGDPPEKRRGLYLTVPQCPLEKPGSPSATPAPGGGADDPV

[27] = target: T6, Voltage-dependent T-type calcium channel subunit alpha-1H; assay type: functional

SMILES: CCN(CC)c1ccc(-c2nn3c(-c4[nH]nc5c4CCC5)nnc3s2)cc1
- IC50 [1]: 61.1 µM (inactive)
- EC50 (cells): 0.859 µM (active)
- EC50 [2]: 0.972 µM (active)
- EC50 [3]: < 0.1 µM (active)
- IC50 [4]: > 20 µM (inactive)
- EC50 [5]: 1.06 µM (active)
- EC50 [6]: 1.21 µM (active)
- EC50 [7]: 0.75 µM (active)
- EC50 [8]: 0.294 µM (active)
- IC50 (J774.A1): 0.667 µM (active)
- EC50 [9]: 0.377 µM (active)

SMILES: CC1CCc2c(sc(NC(=O)c3cccs3)c2C(=O)O)C1 (centres undefined)
- IC50 [10]: > 20 µM (inactive)
- IC50 [11]: > 20 µM (inactive)
- IC50 (HEK293 [12]): > 20 µM (inactive)
- IC50 (HEK293 [13]): > 20 µM (inactive)
- EC50 (HEK293 [14]): > 20 µM (inactive)
- IC50 (Tumor necrosis factor): > 20 µM (inactive)
- IC50 (HEK293 [15]): > 20 µM (inactive)
- IC50 (HEK293 [16]): > 20 µM (inactive)

SMILES: COc1ccc(N2Cc3cccc(C(=O)O)c3C2=O)cc1
- IC50 [17]: > 100 µM (inactive)
- IC50 (Estrogen receptor): 12 µM (active)
- IC50 (Bcl-2-like protein 10): 4.06 µM (active)
- IC50 [18]: > 100 µM (inactive)
- IC50 [19]: > 10 µM (not active)
- IC50 (Estrogen receptor beta [20]): 2.15 µM (active)
- IC50 (Estrogen receptor beta [21]): 0.704 µM (not active)
- IC50 (Ephrin type-A receptor 4): 9.05 µM (active)
- IC50 [22]: > 100 µM (not active)
- IC50 [23]: 4.43 µM (active)
- IC50 [24]: > 100 µM (not active)

SMILES: COc1ccc(NC2SC(=O)N(C)C2=O)cc1 (centres undefined)
- IC50 (Large T antigen): 80.8 µM (active)
- IC50 [25]: > 300 µM (active)

SMILES: O=C(Nc1ccccc1)c1ccccc1NS(=O)(=O)c1ccc(Cl)s1
- EC50 [26]: 0.808 µM (active)
- EC50 [27]: 1.05 µM (active)
